{"source": "patent EP0888346B1", "about": "“CORALYNE ANALOGS AS TOPOISOMERASE INHIBITORS” (RUTGERS, THE STATE UNIVERSITY OF NEW JERSEY, priority 1996, dated 1997)", "key": {"[1]": {"target": "T1, recombinant CPT-K5 topoisomerase I (Homo sapiens, UniProt P11387, D533G)", "T1 construct": "15 amino acid vector-derived fusion (pET-11a leader); made in house; host or cells: E. coli BL21(DE3)", "T1 sequence (P11387 1-765 D533G)": "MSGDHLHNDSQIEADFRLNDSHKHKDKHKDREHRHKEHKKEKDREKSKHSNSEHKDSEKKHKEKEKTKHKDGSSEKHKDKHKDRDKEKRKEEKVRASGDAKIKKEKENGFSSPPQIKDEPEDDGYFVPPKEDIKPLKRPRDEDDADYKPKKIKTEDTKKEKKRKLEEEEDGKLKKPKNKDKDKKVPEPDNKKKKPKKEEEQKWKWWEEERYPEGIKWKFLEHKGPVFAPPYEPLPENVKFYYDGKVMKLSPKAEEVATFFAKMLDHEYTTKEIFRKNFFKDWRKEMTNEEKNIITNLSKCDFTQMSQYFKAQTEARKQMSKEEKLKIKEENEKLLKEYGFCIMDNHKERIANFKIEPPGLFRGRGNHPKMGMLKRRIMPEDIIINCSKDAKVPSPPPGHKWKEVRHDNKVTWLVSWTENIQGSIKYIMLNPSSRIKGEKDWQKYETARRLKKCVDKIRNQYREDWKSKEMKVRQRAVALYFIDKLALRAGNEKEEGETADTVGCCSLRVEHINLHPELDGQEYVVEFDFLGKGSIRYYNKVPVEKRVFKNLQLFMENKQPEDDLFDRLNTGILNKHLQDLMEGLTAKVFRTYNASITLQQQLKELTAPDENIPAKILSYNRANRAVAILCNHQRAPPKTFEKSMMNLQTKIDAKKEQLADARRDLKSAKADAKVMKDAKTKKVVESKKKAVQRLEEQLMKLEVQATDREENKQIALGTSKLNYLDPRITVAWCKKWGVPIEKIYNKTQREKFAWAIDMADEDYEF", "assay": "Cleavage assay with camptothecin-resistant mutant topo I", "type": "biochemical", "conditions": "relative to wildtype human topoisomerase I", "procedure": "Cleavage assays for the recombinant topoisomerases I and calf thymus topoisomerases I and II were done as described (Liu et al., J. Biol. Chem. 258:15365-15370 (1983)). The plasmid YEpG DNA used for the cleavage assays was prepared and labeled at its 3'-end using the published procedures."}, "[2]": {"tested_on": "yeast cells expressing human topoisomerase I", "assay": "Yeast cytotoxicity assay, strain expressing human topo I", "type": "cell-based, S. cerevisiae", "conditions": "plates with 1 µM drug (camptothecin 0.5 µM), 3 days at 30°C", "from_the_text": "(§1) It has been established that yeast can survive when topoisomerase I function is obliterated, and that the topoisomerase I poisons only kill cells having a functional topoisomerase I (Bjornsti et al. Cancer Res. 49:6318-6323 (1989)).\n(§2) The topoisomerase I-specific in vivo cytotoxicity assay was adapted from Knab et al. (Knab et al., J. Biol. Chem. 268:22322-22330 (1993)). In this system, various topo I genes cloned into the single copy yeast plasmid vector, YCpGAL1 (Knab et al., J. Biol. Chem. 268:22322-22330 (1993)), are expressed under the control of the GAL1 promoter in the JN2-134 strain of S. cerevisiae (MATa, rad52::LEU2, trp1, ade2-1,his7, ura3-52, isel, top1-1, leu2) (Bjornsti et al., Cancer Res. 49:6318-6323 (1989)). The topo I constructs in the vector are, respectively, the wild-type yeast topo I (YCpGAL-ScTOP1), a non-functional yeast topo I where the active site tyrosine-727 is mutated to a phenylalanine (YCpGAL1-Sctop1Y727F) (Knab et al., J. Biol. Chem. 268:22322-22330 (1993)), and the wild type human topoisomerase I (YCpGAL-hTOP1) (Bjornsti et al., Cancer Res. 49:6318-6323 (1989)). To qualitatively test the cytotoxicity and the topo I specificity of the drugs, yeast cells containing the specific plasmid were serially diluted (5-fold) and were grown in dropout medium supplemented with uracil and 2% galactose In addition, the plates contained: A: Control, no drug in the plate; B: Camptothecin (CPT), 0.5 µM; C: Coralyne, 1 µM; D: Methylenedioxy-dihydro-demethyl-coralyne (MDD-Coralyne), 1 µM, and E: Nitidine, 1 µM. The plates were grown for 3 days at 30°C to assess the lethal effect of the different compounds on the various topoisomerase I enzymes expressed in S. cerevisiae.and the drug being tested."}, "[3]": {"tested_on": "yeast cells expressing non-functional yeast topoisomerase I", "assay": "Yeast cytotoxicity assay, strain expressing non-functional yeast topo I", "type": "cell-based, S. cerevisiae", "conditions": "plates with 1 µM drug (camptothecin 0.5 µM), 3 days at 30°C", "from_the_text": "as §1, §2"}, "[4]": {"tested_on": "yeast cells expressing functional yeast topoisomerase I", "assay": "Yeast cytotoxicity assay, strain expressing wild-type yeast topo I", "type": "cell-based, S. cerevisiae", "conditions": "plates with 1 µM drug (camptothecin 0.5 µM), 3 days at 30°C", "from_the_text": "as §1, §2"}}}
{"smiles": "COc1cc2c[n+](C)c3c4cc5c(cc4ccc3c2cc1OC)OCO5", "note": "[Nitidine, nitidine]", "values": [{"measurement": "resistance of recombinant CPT-K5 topoisomerase I to the drug", "setting": "[1]", "result": "less than 10 fold"}, {"measurement": "cytotoxicity against yeast cells expressing human topoisomerase I (in words)", "setting": "[2]", "result": "highly cytotoxic"}, {"measurement": "cytotoxicity against yeast cells expressing non-functional yeast topoisomerase I (in words)", "setting": "[3]", "result": "not cytotoxic"}, {"measurement": "cytotoxicity against yeast cells expressing functional yeast topoisomerase I (in words)", "setting": "[4]", "result": "not cytotoxic"}]}
